In the assay the target is T1, human GLP-1 receptor (GLP-1R) (Homo sapiens, UniProt P43220).
T1 construct: expressed in transfected cells; host or cells: HEK293 cells or CHO cells
As to the kind of experiment: cAMP assay, human GLP-1R cells. Type of assay: cell-based. As to conditions: Table 11, tris-lipidated peptides. In a few lines:
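Peptide-stimulated cAMP measured by two-step HTRF after a 30 min room-temperature incubation with receptor-expressing cells (hGLP-1R, hGIPR at 1×10^5 cells/ml; hGCGR at 2×10^5 cells/ml). Duplicate dilutions; EC50 from 4-parameter logistic fit of % Delta F.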
Background: Changes in cAMP serve as a functional read-out for many G protein-coupled receptors.

Setting [1] is: mean of n1 and n2, read-out: Primary assay EC50 Mean pM GLP-1R.
Where [2] appears, read: replicate n1, read-out: Primary assay EC50 GLP-1R n1.
[3] abbreviates: replicate n2, read-out: Primary assay EC50 GLP-1R n2.

In US20210221866A1, “PROTEASE-RESISTANT LIPIDATED GLP-1 ANALOGS” (MEDIMMUNE LIMITED, priority 2015, published 2021) one finds EC50 data, which are given here for five compounds.

Like-named read-outs stand apart in the source and are kept apart here. Numbered stars: 1 amine (or outer) side, 2 acyl side, 3 side chain; on linkers, the order of the positions; unused ones are H or OH. Square brackets hold non-standard residues; d marks the D form. Side chains are listed from the residue outwards. Peptide text beside a SMILES is read from it. * marks the point of attachment. γGlu = O=C(O)[C@H](CCC(=O)[*:2])N[*:1]; αMeF = C[C@](N)(Cc1ccccc1)C(=O)O; αMeK = C[C@](N)(CCCCN)C(=O)O; Lauroyl = CCCCCCCCCCCC(=O)*; αMeS = C[C@](N)(CO)C(=O)O; AEEA = NCCOCCOCC(=O)O; Aib = CC(C)(N)C(=O)O

T1 sequence (P43220 24-463): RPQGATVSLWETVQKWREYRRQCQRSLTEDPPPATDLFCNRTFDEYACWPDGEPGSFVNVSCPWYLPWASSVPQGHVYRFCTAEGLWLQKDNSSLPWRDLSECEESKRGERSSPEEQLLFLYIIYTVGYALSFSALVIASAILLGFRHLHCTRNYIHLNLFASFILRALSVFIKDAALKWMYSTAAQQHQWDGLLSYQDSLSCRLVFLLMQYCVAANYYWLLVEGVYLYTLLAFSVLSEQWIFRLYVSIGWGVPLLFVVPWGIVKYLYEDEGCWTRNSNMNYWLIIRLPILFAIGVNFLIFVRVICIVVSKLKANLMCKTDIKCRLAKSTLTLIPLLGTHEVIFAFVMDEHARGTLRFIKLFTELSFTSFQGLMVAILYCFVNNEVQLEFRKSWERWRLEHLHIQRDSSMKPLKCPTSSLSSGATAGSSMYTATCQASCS

As a reminder, the EC50 is the concentration that produces a half-maximal response. For the compound `CCCCCCCCCCCC(=O)N[C@@H](CCC(=O)NCCOCCOCC(=O)NCCOCCOCC(=O)NCCCC[C@H](NC(=O)[C@H](C)NC(=O)[C@@H](NC(=O)[C@H](Cc1ccccc1)NC(=O)[C@H](CCC(=O)O)NC(=O)[C@](C)(CCCCN)NC(=O)[C@H](C)NC(=O)[C@H](CCCCNC(=O)COCCOCCNC(=O)COCCOCCNC(=O)CC[C@H](NC(=O)CCCCCCCCCCC)C(=O)O)NC(=O)[C@H](CCC(=O)O)NC(=O)CNC(=O)[C@H](CCC(=O)O)NC(=O)[C@H](CC(C)C)NC(=O)[C@H](Cc1ccc(O)cc1)NC(=O)[C@H](CO)NC(=O)[C@H](CO)NC(=O)[C@H](CCCCNC(=O)COCCOCCNC(=O)COCCOCCNC(=O)CC[C@H](NC(=O)CCCCCCCCCCC)C(=O)O)NC(=O)[C@H](CC(=O)O)NC(=O)[C@H](CO)NC(=O)[C@@H](NC(=O)[C@](C)(Cc1ccccc1)NC(=O)[C@H](CO)NC(=O)CNC(=O)[C@H](CCC(=O)O)NC(=O)C(C)(C)NC(=O)[C@@H](N)Cc1c[nH]cn1)[C@@H](C)O)[C@@H](C)CC)C(=O)N[C@H](C(=O)N[C@H](C(=O)N[C@@H](CCC(=O)O)C(=O)NCC(=O)NCC(N)=O)C(C)C)C(C)C)C(=O)O` [compound 457] (H-H[Aib]EGS[αMeF]TSDK([AEEA-AEEA-γGlu-Lauroyl])SSYLEGEK([AEEA-AEEA-γGlu-Lauroyl])A[αMeK]EFIAK([AEEA-AEEA-γGlu-Lauroyl])VVEGG-NH2; N-terminus assumed), the EC50 came out at 142 pM under setting [1], 127 pM under setting [2] and 156 pM under setting [3].
For `CCCCCCCCCCCC(=O)N[C@@H](CCC(=O)NCCOCCOCC(=O)NCCOCCOCC(=O)NCCCC[C@H](NC(=O)[C@H](C)NC(=O)[C@@H](NC(=O)[C@H](Cc1ccccc1)NC(=O)[C@H](CCC(=O)O)NC(=O)[C@](C)(CCCCN)NC(=O)[C@H](C)NC(=O)[C@H](C)NC(=O)[C@H](CCC(=O)O)NC(=O)[C@H](CCCCNC(=O)COCCOCCNC(=O)COCCOCCNC(=O)CC[C@H](NC(=O)CCCCCCCCCCC)C(=O)O)NC(=O)[C@H](CCC(=O)O)NC(=O)[C@H](CC(C)C)NC(=O)[C@H](CCCCNC(=O)COCCOCCNC(=O)COCCOCCNC(=O)CC[C@H](NC(=O)CCCCCCCCCCC)C(=O)O)NC(=O)[C@H](CO)NC(=O)[C@](C)(CO)NC(=O)[C@@H](NC(=O)[C@H](CC(=O)O)NC(=O)[C@H](CO)NC(=O)[C@@H](NC(=O)[C@](C)(Cc1ccccc1)NC(=O)[C@H](CO)NC(=O)CNC(=O)[C@H](CCC(=O)O)NC(=O)C(C)(C)NC(=O)[C@@H](N)Cc1c[nH]cn1)[C@@H](C)O)C(C)C)[C@@H](C)CC)C(=O)N[C@H](C(=O)N[C@H](C(=O)N[C@@H](CCC(=O)O)C(=O)NCC(=O)NCC(N)=O)C(C)C)C(C)C)C(=O)O` [compound 463] (H-H[Aib]EGS[αMeF]TSDV[αMeS]SK([AEEA-AEEA-γGlu-Lauroyl])LEK([AEEA-AEEA-γGlu-Lauroyl])EAA[αMeK]EFIAK([AEEA-AEEA-γGlu-Lauroyl])VVEGG-NH2; N-terminus assumed) the same measures were 82 pM, 69.5 pM and 94.4 pM.
On to `CCCCCCCCCCCC(=O)N[C@@H](CCC(=O)NCCOCCOCC(=O)NCCOCCOCC(=O)NCCCC[C@H](NC(=O)CNC(=O)[C@H](CCC(=O)O)NC(=O)[C@H](CC(C)C)NC(=O)[C@H](Cc1ccc(O)cc1)NC(=O)[C@H](CO)NC(=O)[C@H](CO)NC(=O)[C@H](CCCCNC(=O)COCCOCCNC(=O)COCCOCCNC(=O)CC[C@H](NC(=O)CCCCCCCCCCC)C(=O)O)NC(=O)[C@H](CC(=O)O)NC(=O)[C@H](CO)NC(=O)[C@@H](NC(=O)[C@](C)(Cc1ccccc1)NC(=O)[C@H](CO)NC(=O)CNC(=O)[C@H](CCC(=O)O)NC(=O)C(C)(C)NC(=O)[C@@H](N)Cc1c[nH]cn1)[C@@H](C)O)C(=O)N[C@@H](C)C(=O)N[C@@H](C)C(=O)N[C@@](C)(CCCCN)C(=O)N[C@@H](CCC(=O)O)C(=O)N[C@@H](Cc1ccccc1)C(=O)N[C@H](C(=O)N[C@@H](C)C(=O)N[C@@H](Cc1ccccc1)C(=O)N[C@@H](CCCCNC(=O)COCCOCCNC(=O)COCCOCCNC(=O)CC[C@H](NC(=O)CCCCCCCCCCC)C(=O)O)C(=O)N[C@H](C(=O)N[C@@H](CCC(=O)O)C(=O)NCC(=O)NCC(N)=O)C(C)C)[C@@H](C)CC)C(=O)O` [compound 472] (H-H[Aib]EGS[αMeF]TSDK([AEEA-AEEA-γGlu-Lauroyl])SSYLEGK([AEEA-AEEA-γGlu-Lauroyl])AA[αMeK]EFIAFK([AEEA-AEEA-γGlu-Lauroyl])VEGG-NH2; N-terminus assumed), for which the EC50 under setting [1] stood at 287 pM.
Same read-out and setting: with `CCCCCCCCCCCC(=O)N[C@@H](CCC(=O)NCCOCCOCC(=O)NCCOCCOCC(=O)NCCCC[C@H](NC(=O)[C@H](CC(=O)O)NC(=O)[C@H](CO)NC(=O)[C@@H](NC(=O)[C@](C)(Cc1ccccc1)NC(=O)[C@H](CO)NC(=O)CNC(=O)[C@H](CCC(=O)O)NC(=O)C(C)(C)NC(=O)[C@@H](N)Cc1c[nH]cn1)[C@@H](C)O)C(=O)N[C@@H](CO)C(=O)N[C@@H](CO)C(=O)N[C@@H](Cc1ccc(O)cc1)C(=O)N[C@@H](CC(C)C)C(=O)N[C@@H](CCC(=O)O)C(=O)NCC(=O)N[C@@H](CCC(=O)O)C(=O)N[C@@H](C)C(=O)N[C@@H](C)C(=O)N[C@@](C)(CCCCN)C(=O)N[C@@H](CCCCNC(=O)COCCOCCNC(=O)COCCOCCNC(=O)CC[C@H](NC(=O)CCCCCCCCCCC)C(=O)O)C(=O)N[C@@H](Cc1ccccc1)C(=O)N[C@H](C(=O)N[C@@H](C)C(=O)N[C@@H](Cc1ccccc1)C(=O)N[C@@H](CCCCNC(=O)COCCOCCNC(=O)COCCOCCNC(=O)CC[C@H](NC(=O)CCCCCCCCCCC)C(=O)O)C(=O)N[C@H](C(=O)N[C@@H](CCC(=O)O)C(=O)NCC(=O)NCC(N)=O)C(C)C)[C@@H](C)CC)C(=O)O` [compound 474] (H-H[Aib]EGS[αMeF]TSDK([AEEA-AEEA-γGlu-Lauroyl])SSYLEGEAA[αMeK]K([AEEA-AEEA-γGlu-Lauroyl])FIAFK([AEEA-AEEA-γGlu-Lauroyl])VEGG-NH2) the figure was 290 pM; with `CCCCCCCCCCCC(=O)N[C@@H](CCC(=O)NCCOCCOCC(=O)NCCOCCOCC(=O)NCCCC[C@H](NC(=O)CNC(=O)[C@H](CCC(=O)O)NC(=O)[C@H](CC(C)C)NC(=O)[C@H](CCCCNC(=O)COCCOCCNC(=O)COCCOCCNC(=O)CC[C@H](NC(=O)CCCCCCCCCCC)C(=O)O)NC(=O)[C@H](CO)NC(=O)[C@](C)(CO)NC(=O)[C@@H](NC(=O)[C@H](CC(=O)O)NC(=O)[C@H](CO)NC(=O)[C@@H](NC(=O)[C@](C)(Cc1ccccc1)NC(=O)[C@H](CO)NC(=O)CNC(=O)[C@H](CCC(=O)O)NC(=O)C(C)(C)NC(=O)[C@@H](N)Cc1c[nH]cn1)[C@@H](C)O)C(C)C)C(=O)N[C@@H](C)C(=O)N[C@@H](C)C(=O)N[C@@](C)(CCCCN)C(=O)N[C@@H](CCC(=O)O)C(=O)N[C@@H](Cc1ccccc1)C(=O)N[C@H](C(=O)N[C@@H](C)C(=O)N[C@@H](Cc1ccccc1)C(=O)N[C@@H](CCCCNC(=O)COCCOCCNC(=O)COCCOCCNC(=O)CC[C@H](NC(=O)CCCCCCCCCCC)C(=O)O)C(=O)N[C@H](C(=O)N[C@@H](CCC(=O)O)C(=O)NCC(=O)NCC(N)=O)C(C)C)[C@@H](C)CC)C(=O)O` [compound 480] (H-H[Aib]EGS[αMeF]TSDV[αMeS]SK([AEEA-AEEA-γGlu-Lauroyl])LEGK([AEEA-AEEA-γGlu-Lauroyl])AA[αMeK]EFIAFK([AEEA-AEEA-γGlu-Lauroyl])VEGG-NH2; N-terminus assumed), 57.5 pM.
